Values quoted from earlier work, collected in patent US20090197946A1, “COMPOSITION AND METHOD FOR TREATMENT OF INFLAMATION AND INFECTIONS OF THE GENITALIA, CONTRACEPTIVE AND THE PROPHYLAXIS OF SEXUALLY TRANSMITTED DISEASES” (priority 2008, published 2009).

Columns and labels:
[1] = tested on: vaginal epithelium; details: topical, African commercial sex workers
[2] = in vivo

Row | Compound | effect of frequent use on the vaginal epithelium [1] | susceptibility to the HIV infection ([1]; frequent use) | known potential side effects [2]
1 | nonoxynol 9 | damaged the vaginal epithelium | increased their susceptibility to the HIV infection | –
2 | CC(C)OC(=O)OCOP(=O)(CO[C@H](C)Cn1cnc2c(N)ncnc21)OCOC(=O)OC(C)C [Viread, Tenofovir] | – | – | nausea, diarrhea, vomiting and flatulence
